The target of one assay is T1, STAT6 (Homo sapiens, UniProt P42226).
T1 construct: These cells express endogenous STAT6; host or cells: HeLa LgBiT clone 4.14
T1 sequence (P42226 1-847): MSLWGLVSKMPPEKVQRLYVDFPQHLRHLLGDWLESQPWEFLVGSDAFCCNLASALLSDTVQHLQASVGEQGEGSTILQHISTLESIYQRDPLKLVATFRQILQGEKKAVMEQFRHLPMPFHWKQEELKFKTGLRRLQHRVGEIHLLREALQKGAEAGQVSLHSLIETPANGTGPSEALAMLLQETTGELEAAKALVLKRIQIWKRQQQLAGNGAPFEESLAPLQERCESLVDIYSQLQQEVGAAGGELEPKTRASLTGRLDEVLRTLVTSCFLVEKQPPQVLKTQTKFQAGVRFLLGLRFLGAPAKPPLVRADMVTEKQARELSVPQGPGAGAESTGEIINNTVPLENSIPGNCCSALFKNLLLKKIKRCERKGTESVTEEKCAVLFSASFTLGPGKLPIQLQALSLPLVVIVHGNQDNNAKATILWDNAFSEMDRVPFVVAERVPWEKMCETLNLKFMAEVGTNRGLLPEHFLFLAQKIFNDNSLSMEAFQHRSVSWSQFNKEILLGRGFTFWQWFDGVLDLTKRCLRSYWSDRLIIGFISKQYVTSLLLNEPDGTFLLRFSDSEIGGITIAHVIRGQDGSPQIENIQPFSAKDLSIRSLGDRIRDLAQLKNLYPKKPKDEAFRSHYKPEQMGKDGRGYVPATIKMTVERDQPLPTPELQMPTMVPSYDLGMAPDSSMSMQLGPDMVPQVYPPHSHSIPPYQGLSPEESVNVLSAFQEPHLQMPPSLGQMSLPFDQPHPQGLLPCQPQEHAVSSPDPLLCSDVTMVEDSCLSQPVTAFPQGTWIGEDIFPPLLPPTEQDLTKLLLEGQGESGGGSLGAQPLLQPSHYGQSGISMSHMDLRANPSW
Kind of assay: Stat6 Degrader Assay (HiBiT based, HeLa LgBiT clone 4.14). It counts as cell-based. The conditions noted are these: HeLa LgBiT clone 4.14 HiBiT-STAT6, 4-24 h incubation; values given for compounds with >80% Emax; geometric mean; read-out: STAT6 degradation DC50. The essentials:
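HeLa LgBiT clone 4.14 cells with CRISPR HiBiT-tagged endogenous STAT6, 5000 cells/well, compound dosed then incubated 4-24 h at 37° C, 5% CO2. Nano-Glo substrate added, 0.5 h, luminescence read as non-degraded STAT6. Terfenadine 50 μM (cell kill) defines 100% degradation.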

The test system of assay [1] is Eotaxin-3 release in human whole blood stimulated with IL-4. The assay is described as follows: Human Whole Blood Eotaxin-3 Assay (IL-4 stimulated eotaxin-3 release). The format is cell-based. To be noted: IL-4 stimulation, 48 h, values given for compounds with >80% Emax, geometric mean. A digest of the protocol:
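Lithium-heparin human whole blood preincubated 2 h at 37° C with 4-fold serially diluted compounds (0.5% DMSO), then stimulated with recombinant human IL-4 ([…]) for 48 h. Eotaxin-3 (CCL26) in supernatant quantified by MSD immunoassay.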

As for `Cc1cc(C(=O)N2CCC(CN3CCN(Cc4ccc5c(c4)n(C4CC4)c(=O)n5C4CCC(=O)NC4=O)CC3)CC2)cc(F)c1C1=CCN([C@@H](C)c2cc3c(-n4ccc5c(c4=O)CCN5)ccnc3n2C)CC1` (stereo partly drawn) [Example 3u140, 3-(3-cyclopropyl-5-((4-((1-(3-fluoro-5-methyl-4-(1-((S)-1-(1-methyl-4-(4-oxo-1,2,3,4-tetrahydro-5H-pyrrolo[3,2-c]pyridin-5-yl)-1H-pyrrolo[2,3-b]pyridin-2-yl)ethyl)-1,2,3,6-tetrahydropyridin-4-yl)benzoyl)piperidin-4-yl)methyl)piperazin-1-yl)methyl)-2-oxo-2,3-dihydro-1H-benzo[d]imidazol-1-yl)piperidine-2,6-dione], the DC50 at STAT6 was found to be 1.4 nM. This molecule yielded an EC50 in assay [1] of 1 nM.

With `Cc1cc(C(=O)N2CCC(CN3CCN(Cc4cc5c(cc4F)n(C4CCC(=O)NC4=O)c(=O)n5C4CC4)CC3)CC2)cc(F)c1C1=CCN([C@@H](C)c2cc3c(-n4ccc5c(c4=O)CCN5)ccnc3n2C)CC1` (stereo partly drawn) [Example 3u146, 3-(3-cyclopropyl-6-fluoro-5-((4-((1-(3-fluoro-5-methyl-4-(1-((S)-1-(1-methyl-4-(4-oxo-1,2,3,4-tetrahydro-5H-pyrrolo[3,2-c]pyridin-5-yl)-1H-pyrrolo[2,3-b]pyridin-2-yl)ethyl)-1,2,3,6-tetrahydropyridin-4-yl)benzoyl)piperidin-4-yl)methyl)piperazin-1-yl)methyl)-2-oxo-2,3-dihydro-1H-benzo[d]imidazol-1-yl)piperidine-2,6-dione], the DC50 on STAT6 was found to be 1.7 nM. For the same molecule, in assay [1], a half-maximal effect (EC50) was put at 1.4 nM.

Take `CNc1ccn(-c2ccnc3c2cc(CN2CCC(c4c(F)cc(C(=O)N5CCC(CN6CCN(c7ccc8c(c7)C7(CC7)C(=O)N8C7CCC(=O)NC7=O)CC6)CC5)cc4F)CC2)n3C)c(=O)c1` (stereo not shown) [Example 3u149, 3-(5′-(4-((1-(3,5-difluoro-4-(1-((1-methyl-4-(4-(methylamino)-2-oxopyridin-1 (2H)-yl)-1H-pyrrolo[2,3-b]pyridin-2-yl)methyl)piperidin-4-yl)benzoyl)piperidin-4-yl)methyl)piperazin-1-yl)-2′-oxospiro[cyclopropane-1,3′-indolin]-1′-yl)piperidine-2,6-dione]: the DC50 on STAT6 was found to be 33.8 nM. Also, the EC50 in assay [1] was 27.6 nM.

Regarding `CNc1cc(=O)n(-c2ccnc3c2cc([C@H](C)N2CC=C(c4c(C)cc(C(=O)N5CCC(CN6CCN(Cc7cc8c(cc7F)N(C7CCC(=O)NC7=O)C(=O)C87CC7)CC6)CC5)cc4F)CC2)n3C)cc1F` (stereo partly drawn) [Example 3u152, 3-(6′-fluoro-5′-((4-((1-(3-fluoro-4-(1-((S)-1-(4-(5-fluoro-4-(methylamino)-2-oxopyridin-1 (2H)-yl)-1-methyl-1H-pyrrolo[2,3-b]pyridin-2-yl)ethyl)-1,2,3,6-tetrahydropyridin-4-yl)-5-methylbenzoyl)piperidin-4-yl)methyl)piperazin-1-yl)methyl)-2′-oxospiro[cyclopropane-1,3′-indolin]-1′-yl)piperidine-2,6-dione], at STAT6, the DC50 amounted to 6.6 nM. In addition, a half-maximal response in assay [1] (EC50) required 13.2 nM.

Turning to `CNc1ccn(-c2ccnc3c2cc([C@H](C)N2CC=C(c4c(C)cc(C(=O)N5CCC(CN6CCN(Cc7ccc8c(c7)n(C)c(=O)n8C7CCC(=O)NC7=O)CC6)CC5)cc4F)CC2)n3C)c(=O)c1` (stereo partly drawn) [Example 3u155, 3-(5-((4-((1-(3-fluoro-5-methyl-4-(1-((S)-1-(1-methyl-4-(4-(methylamino)-2-oxopyridin-1 (2H)-yl)-1H-pyrrolo[2,3-b]pyridin-2-yl)ethyl)-1,2,3,6-tetrahydropyridin-4-yl)benzoyl)piperidin-4-yl)methyl)piperazin-1-yl)methyl)-3-methyl-2-oxo-2,3-dihydro-1H-benzo[d]imidazol-1-yl)piperidine-2,6-dione], the DC50 at STAT6 was 0.3 nM. Further, the midpoint of the response in assay [1], the EC50, lay at 0.5 nM.

Consider `CNc1cc(=O)n(-c2ccnc3c2cc([C@H](C)N2CC=C(c4c(C)cc(C(=O)N5CCC(CN6CCN(Cc7ccc8c(c7)C7(CC7)C(=O)N8C7CCC(=O)NC7=O)C[C@@H]6C)CC5)cc4F)CC2)n3C)cc1F` (stereo partly drawn) [Example 3u164, 3-(5′-(((S)-4-((1-(3-fluoro-4-(1-((S)-1-(4-(5-fluoro-4-(methylamino)-2-oxopyridin-1 (2H)-yl)-1-methyl-1H-pyrrolo[2,3-b]pyridin-2-yl)ethyl)-1,2,3,6-tetrahydropyridin-4-yl)-5-methyl-benzoyl)piperidin-4-yl)methyl)-3-methylpiperazin-1-yl)methyl)-2′-oxospiro[cyclopropane-1,3′-indolin]-1′-yl)piperidine-2,6-dione], for which the DC50 at STAT6 worked out at 1 nM. In assay [1], this molecule had an EC50 of 2 nM.

In the case of `CNc1ccn(-c2ccnc3c2cc([C@H](C)N2CC=C(c4c(C)cc(C(=O)N5CCC(CN6CCN(Cc7cc8c(cc7F)n(C7CCC(=O)NC7=O)c(=O)n8C7CC7)C[C@@H]6C)CC5)cc4F)CC2)n3C)c(=O)c1` (stereo partly drawn) [Example 3u166, 3-(3-cyclopropyl-6-fluoro-5-(((S)-4-((1-(3-fluoro-5-methyl-4-(1-((S)-1-(1-methyl-4-(4-(methylamino)-2-oxopyridin-1 (2H)-yl)-1H-pyrrolo[2,3-b]pyridin-2-yl)ethyl)-1,2,3,6-tetrahydropyridin-4-yl)benzoyl)piperidin-4-yl)methyl)-3-methylpiperazin-1-yl)methyl)-2-oxo-2,3-dihydro-1H-benzo[d]imidazol-1-yl)piperidine-2,6-dione], the DC50 at STAT6 is 1.1 nM. In assay [1], this molecule came in with an EC50 of 1.3 nM.

In the case of `Cc1cc(C(=O)N2CCC(CN3CCN(Cc4ccc5c(c4)C(C)(C)C(=O)N5C4CCC(=O)NC4=O)C[C@@H]3C)CC2)cc(F)c1C1=CCN([C@@H](C)c2cc3c(-n4cc(F)c(N)cc4=O)ccnc3n2C)CC1` (stereo partly drawn) [Example 3u169, 3-(5-(((S)-4-((1-(4-(1-((S)-1-(4-(4-amino-5-fluoro-2-oxopyridin-1 (2H)-yl)-1-methyl-1H-pyrrolo[2,3-b]pyridin-2-yl)ethyl)-1,2,3,6-tetrahydropyridin-4-yl)-3-fluoro-5-methylbenzoyl)piperidin-4-yl)methyl)-3-methylpiperazin-1-yl)methyl)-3,3-dimethyl-2-oxoindolin-1-yl)piperidine-2,6-dione], on STAT6, the DC50 amounted to 4.1 nM. In assay [1], this molecule came in with an EC50 of 14.6 nM.

In the case of `CNc1cc(=O)n(-c2ccnc3c2cc([C@H](C)N2CC=C(c4c(C)cc(C(=O)N5CCC(CN6CCN(Cc7ccc8c(c7)C(C)(C)C(=O)N8C7CCC(=O)NC7=O)C[C@@H]6C)CC5)cc4F)CC2)n3C)cc1F` (stereo partly drawn) [Example 3u172, 3-(5-(((S)-4-((1-(3-fluoro-4-(1-((S)-1-(4-(5-fluoro-4-(methylamino)-2-oxopyridin-1 (2H)-yl)-1-methyl-1H-pyrrolo[2,3-b]pyridin-2-yl)ethyl)-1,2,3,6-tetrahydropyridin-4-yl)-5-methylbenzoyl)piperidin-4-yl)methyl)-3-methylpiperazin-1-yl)methyl)-3,3-dimethyl-2-oxoindolin-1-yl)piperidine-2,6-dione], the DC50 at STAT6 was 2.9 nM. This molecule returned an EC50 in assay [1] of 13.2 nM.

As for `CNc1ccn(-c2ccnc3c2cc([C@H](C)N2CC=C(c4c(C)cc(C(=O)N5CCC(CN6CCN(Cc7ccc8c(c7)C(C)(C)C(=O)N8C7CCC(=O)NC7=O)C[C@@H]6C)CC5)cc4F)CC2)n3C)c(=O)c1` (stereo partly drawn) [Example 3u175, 3-(5-(((S)-4-((1-(3-fluoro-5-methyl-4-(1-((S)-1-(1-methyl-4-(4-(methylamino)-2-oxopyridin-1 (2H)-yl)-1H-pyrrolo[2,3-b]pyridin-2-yl)ethyl)-1,2,3,6-tetrahydropyridin-4-yl)benzoyl)-piperidin-4-yl)methyl)-3-methylpiperazin-1-yl)methyl)-3,3-dimethyl-2-oxoindolin-1-yl)piperidine-2,6-dione], the DC50 on STAT6 is 1.3 nM. In addition, in assay [1], it took 3.8 nM to reach a half-maximal effect (EC50).

Regarding `CNc1ccn(-c2ccnc3c2cc(CN2CC=C(c4c(C)cc(C(=O)N5CCC(CN6CCN(Cc7ccc8c(c7)C(C)(C)C(=O)N8C7CCC(=O)NC7=O)C[C@@H]6C)CC5)cc4F)CC2)n3C)c(=O)c1` (stereo partly drawn) [Example 3u178, 3-(5-(((S)-4-((1-(3-fluoro-5-methyl-4-(1-((1-methyl-4-(4-(methylamino)-2-oxopyridin-1 (2H)-yl)-1H-pyrrolo[2,3-b]pyridin-2-yl)methyl)-1,2,3,6-tetrahydropyridin-4-yl)benzoyl)piperidin-4-yl)methyl)-3-methylpiperazin-1-yl)methyl)-3,3-dimethyl-2-oxoindolin-1-yl)piperidine-2,6-dione], on STAT6, the DC50 amounted to 5.6 nM. In assay [1], this molecule displayed an EC50 of 7.7 nM.

(Values after patent publication US20250320206A1, “STAT6 DEGRADERS” (Gilead Sciences, Inc., priority 2024, published 2025).)
